The source made the active and inactive calls.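 How the source made its calls: active means decreasing luminescence curve with half-maximal concentration at most twice the top tested dose, in every replicate run; inconclusive means replicate test runs disagree in their calls; inactive means every replicate run inactive, including responses in the opposite direction.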
molecular target: Glycogen synthase kinase-3 beta (Homo sapiens) (UniProt P49841); test: GSK3beta inhibitors at high ATP, SAR follow-up, mechanism study for GSK3beta inhibitor project, biochemical, varied ATP levels, ADP-Glo luminescence, dry powder samples (AID 624027); details: GST-GSK3beta kinase, 100 uM ATP
Sequence (P49841 whole entry, looked up): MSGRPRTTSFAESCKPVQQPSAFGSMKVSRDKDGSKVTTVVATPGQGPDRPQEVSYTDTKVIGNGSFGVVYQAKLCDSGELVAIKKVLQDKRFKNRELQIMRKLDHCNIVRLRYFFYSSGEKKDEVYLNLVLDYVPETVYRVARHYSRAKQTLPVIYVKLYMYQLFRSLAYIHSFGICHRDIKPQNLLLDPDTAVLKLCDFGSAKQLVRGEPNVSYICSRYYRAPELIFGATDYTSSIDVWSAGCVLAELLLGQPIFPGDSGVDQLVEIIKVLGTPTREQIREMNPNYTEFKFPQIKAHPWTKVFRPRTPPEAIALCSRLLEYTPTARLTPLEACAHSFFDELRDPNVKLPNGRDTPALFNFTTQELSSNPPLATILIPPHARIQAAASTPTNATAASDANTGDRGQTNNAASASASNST

| AC50 [µM] | SMILES |
| --- | --- |
| 25.2 | CC1(C)CC(=O)/C(=C\c2ccccc2C(F)(F)F)C(=Nc2cc(C(F)(F)F)[nH]n2)C1 |
| 0.103 | CC1(C)CC(=O)C2=C(C1)Nc1n[nH]c(C(F)(F)F)c1C2c1ccccc1 (centres undefined) |
| 0.143 | COc1ccccc1[C@@H]1C2=C(CC(C)(C)CC2=O)Nc2n[nH]c(C(F)(F)F)c21 |
| 0.231 | Cc1[nH]nc2c1C(c1cccc3nonc13)C1=C(CC(C)(C)CC1=O)N2 (centres undefined) |
| 39.8 | Cc1[nH]nc2c1C(c1ccc(C#N)cc1)C1=C(CC(C)(C)CC1=O)N2 (centres undefined) |
| 0.231 | Cc1[nH]nc2c1[C@@H](c1ccccc1C(F)(F)F)C1=C(CC(C)(C)CC1=O)N2 |
| 31.9 | Cc1[nH]nc2c1[C@H](c1ccccc1C(F)(F)F)C1=C(CC(C)(C)CC1=O)N2 |
| 0.041 | CC1(C)CC(=O)C2=C(C1)Nc1n[nH]c(C(F)(F)F)c1C2(C)c1ccccc1 (centres undefined) |
| 2.34 | CC1(C)CC(=O)C2=C(C1)Nc1n[nH]c(C(F)(F)F)c1C2c1cc(F)ccc1OC(F)(F)F (centres undefined) |
| 13.2 | CC1(C)CC(=O)/C(=C\c2cccc(F)c2C(F)(F)F)C(=Nc2cc(C(F)(F)F)[nH]n2)C1 |
| 0.209 | CC1(C)CC(=O)C2=C(C1)Nc1n[nH]c(C(F)(F)F)c1C2c1cc(F)ccc1C(F)(F)F (centres undefined) |
| 0.932 | CC1(C)CC(=O)C2=C(C1)Nc1n[nH]c(C(F)(F)F)c1C2c1ccccc1F (centres undefined) |

same assay, conditions: GST-GSK3beta kinase, 100 uM ATP, at 46 µM (top of the series)

| activity change, negative = inhibition | SMILES |
| --- | --- |
| inactive | CNC(=O)c1cn(-c2ccccc2)nc1-c1ccc(OC)cc1 |
| inactive | CN(C)Cc1cn(-c2ccccc2)nc1-c1ccccc1 |

Reference: PubChem BioAssay AID624027 (Broad Institute, 2012)
